# Legend:
# [1] = system: vaginal epithelial cells (VECs); test: In vitro adherence to vaginal epithelial cells (frozen VECs, McIlvaine's buffer pH 4.5, Gram stain count); type: cell-based, human; settings: for average adherence value: 8 VEC donors
# Protocol: (1.2) Adherence to vaginal epithelial cells (VECs): Immediately after sampling, vaginal epithelial cells were transferred to MEM tissue culture medium, pH 7.2, washed 3 times in a syringe and passed through a 8μ filter (Millipore) which retains vaginal cells but passes bacteria. A total of 10^5 washed vaginal cells were added to a suspension of 10^9 Lactobacilli/ml (enumerated with a counting chamber) and incubated for 2.5 hours at 37° C. After washing and filtering to remove unattached Lactobacilli, the vaginal cells were stained using Gram stain. The number of Lactobacilli that adhered to the epithelial cells was counted and recorded using a light microscope equipped with a camera. Both the mean number of Lactobacilli cells adhered per VEC (average adherence value) and the percent VEC cohesion value, as described above, were calculated. The percent VEC cohesion value, defined as the percentage of VECs to which at least one Lactobacillus cell is adhered of the total number of VECs in an identified group, was used to determine whether a particular strain would be selected as having a desirable adherence characteristic. Since ongoing adherence studies required a constant supply of vaginal epithelial cells, the vaginal epithelial cells were pre-washed and stored at −70° C. until time of use.
# Table 1 and Table 2 show the in vitro adherence studies using frozen VECs from donors representing the most prevalent ABO blood types. […] Strain CTV-05 (Lot LB-022) was preserved in suppository format as described in detail in Example 3. Suppositories were stored at both room (RT) and refrigerator (Ref.) temperatures for 5.5 months prior to testing. It is important to note that the cells of strain CTV-05 used in these studies were not in an actively growing metabolic state. Rather, a suppository containing CTV-05 was placed directly into McIlvaine's buffer (pH 4.5) without pregrowing the microbial cells to an active state. The cells were then directly added to VECs. Results are shown as (1) the logarithmic mean adherence of CTV-05 per 50 VECs (X ±1 standard deviation), (2) as the actual range of adhered CTV-05 per VEC in a total count of 50 VECs, and (3) as the percent VEC cohesion value (% VEC ADH). The description of terms in Table 1 is as follows: ^1X±STD=logarithmic mean adherence of LAB per 50 VEC, +1 standard deviation; ^2 Range=actual range of adhered LAB per VEC in a total count of 50 VECs; ^3% VEC ADH=percent of 50 VECs showing adherence of LAB strain CTV-05, Lot LB-022, stored for 5.5 months at refrigerated (Ref.) and/or room temperature (RT); and *Nursing Mother.
# The buffer was then added directly to previously frozen VECs from human donors. Actively growing CTV-05 was also added to previously frozen VECs.
# [2] = system: H2O2 production; test: Production of H2O2 (TMB medium or EM strips); settings: gelatin capsule suppository, storage period up to 25 months
# Protocol: (1.4) Production of H2O2: Strains were inoculated onto tetramethylbenzidine medium (TMB) and incubated at 37° C. for 2-3 days under anaerobic conditions. H2O2-producing colonies produce a blue pigment upon exposure to ambient air. Alternatively, H2O2-detecting strips from EM Science were used. The reagent impregnated portion of the strip was applied to a Lactobacillus colony and the intensity of the resulting blue color served as a quantitative measure of H2O2 concentration.
# [3] = system: women who had bacterial vaginosis; test: Suppository as treatment for bacterial vaginosis; type: in vivo, human
# Excerpt: In this study, 13 women who had bacterial vaginosis were given Lactobacillus crispatus CTV-05 suppositories twice daily for seven days. The purpose of this study was to evaluate whether Lactobacillus suppositories could be used as a treatment for bacterial vaginosis. Only 1 of 10 women who returned for follow-up was cured of bacterial vaginosis at the one week follow-up visit.
# [4] = system: women; test: Pooled clinical trials with the CTV-05 suppository (Examples 5-7); type: in vivo, human
# Excerpt: The studies presented in Examples 5 6, and 7 have shown that the Lactobacilli of the present invention can be used in a suppository to recolonize the vagina with Lactobacilli. Over fifty women have been included in clinical trials with the Lactobacillus crispatus CTV-05 suppository. […] Furthermore, the present inventors have developed fingerprinting methods which allow the identification of the suppository strain of L. crispatus in human trials.
# [5] = Active LAB, donor A+, cycle day 3, Gram stain score 4
# [6] = Active LAB, donor A+, cycle day 17, Gram stain score 9
# [7] = Active LAB, donor A+, cycle day 37, Gram stain score 8
# [8] = Active LAB, donor AB+, cycle day 24, Gram stain score 4
# [9] = Active LAB, donor A−, cycle day 8 mos., Gram stain score 4
# [10] = Active LAB, donor B+, cycle day 13, Gram stain score 9
# [11] = Active LAB, donor O+, cycle day 7, Gram stain score 2
# [12] = Active LAB, donor O+, cycle day 7, Gram stain score 4
# [13] = Active LAB, donor O+, cycle day 15, Gram stain score 2
# [14] = Active LAB, donor O+, cycle day 20, Gram stain score 6
# [15] = Active LAB, frozen VECs, 10 donors
# [16] = Inactive LAB, Agar, donor A+, cycle day 3, Gram stain score 4
# [17] = Inactive LAB, Agar, donor A+, cycle day 37, Gram stain score 8
# [18] = Inactive LAB, Agar, donor AB+, cycle day 24, Gram stain score 4
# [19] = Inactive LAB, Agar, donor B+, cycle day 13, Gram stain score 9
# [20] = Inactive LAB, Agar, donor O+, cycle day 7, Gram stain score 2
# [21] = Inactive LAB, Agar, donor O+, cycle day 15, Gram stain score 2
# [22] = Inactive LAB, Agar, donor O+, cycle day 20, Gram stain score 6
# [23] = Inactive LAB, Agar, frozen VECs
# [24] = Inactive LAB, Broth, donor A+, cycle day 3, Gram stain score 4
# [25] = Inactive LAB, Broth, donor A+, cycle day 17, Gram stain score 9
# [26] = Inactive LAB, Broth, donor A+, cycle day 37, Gram stain score 8
# [27] = Inactive LAB, Broth, donor AB+, cycle day 24, Gram stain score 4
# [28] = Inactive LAB, Broth, donor A−, cycle day 8 mos., Gram stain score 4
# [29] = Inactive LAB, Broth, donor B+, cycle day 13, Gram stain score 9
# [30] = Inactive LAB, Broth, donor O+, cycle day 7, Gram stain score 2
# [31] = Inactive LAB, Broth, donor O+, cycle day 7, Gram stain score 4
# [32] = Inactive LAB, Broth, donor O+, cycle day 15, Gram stain score 2
# [33] = Inactive LAB, Broth, donor O+, cycle day 20, Gram stain score 6
# [34] = Inactive LAB, Broth, frozen VECs, 10 donors
substance,measurement,setting,value
Lactobacillus crispatus CTV-05,% VEC ADH,[1]; [5],94%
same,X ± 1 STD (logarithmic mean adherence of LAB per 50 VEC),[1]; [5],17.7 ± 3.2
same,% VEC ADH,[1]; [6],66%
same,X ± 1 STD (logarithmic mean adherence of LAB per 50 VEC),[1]; [6],13.0 ± 5.0
same,% VEC ADH,[1]; [7],94%
same,Range (adhered LAB per VEC),[1]; [7],0-133 LAB per VEC
same,X ± 1 STD (logarithmic mean adherence of LAB per 50 VEC),[1]; [7],8.5 ± 3.3
same,% VEC ADH,[1]; [8],70%
same,Range (adhered LAB per VEC),[1]; [8],0-109 LAB per VEC
same,X ± 1 STD (logarithmic mean adherence of LAB per 50 VEC),[1]; [8],5.1 ± 3.4
same,% VEC ADH,[1]; [9],96%
same,X ± 1 STD (logarithmic mean adherence of LAB per 50 VEC),[1]; [9],52.1 ± 3.6
same,% VEC ADH,[1]; [10],68%
same,Range (adhered LAB per VEC),[1]; [10],0-61 LAB per VEC
same,X ± 1 STD (logarithmic mean adherence of LAB per 50 VEC),[1]; [10],5.7 ± 3.3
same,% VEC ADH,[1]; [11],94%
same,X ± 1 STD (logarithmic mean adherence of LAB per 50 VEC),[1]; [11],51.9 ± 3.0
same,% VEC ADH,[1]; [12],92%
same,X ± 1 STD (logarithmic mean adherence of LAB per 50 VEC),[1]; [12],36.3 ± 2.7
same,% VEC ADH,[1]; [13],96%
same,Range (adhered LAB per VEC),[1]; [13],0-216 LAB per VEC
same,X ± 1 STD (logarithmic mean adherence of LAB per 50 VEC),[1]; [13],16.4 ± 4.0
same,% VEC ADH,[1]; [14],100%
same,Range (adhered LAB per VEC),[1]; [14],1-122 LAB per VEC
same,X ± 1 STD (logarithmic mean adherence of LAB per 50 VEC),[1]; [14],14.1 ± 2.3
same,Overall Averages # LAB/VEC,[1]; [15],22.1 LAB/VEC
same,Overall Averages % Adherence,[1]; [15],77.6%
same,Range (adhered LAB per VEC),[1]; [16],14-200 LAB per VEC
same,X ± 1 STD (logarithmic mean adherence of LAB per 50 VEC),[1]; [16],96.1 ± 2.3
same,% VEC ADH,[1]; [17],100%
same,X ± 1 STD (logarithmic mean adherence of LAB per 50 VEC),[1]; [17],58.9 ± 2.1
same,% VEC ADH,[1]; [18],100%
same,X ± 1 STD (logarithmic mean adherence of LAB per 50 VEC),[1]; [18],47.3 ± 2.5
same,% VEC ADH,[1]; [19],100%
same,X ± 1 STD (logarithmic mean adherence of LAB per 50 VEC),[1]; [19],19.4 ± 3.9
same,% VEC ADH,[1]; [20],100%
same,X ± 1 STD (logarithmic mean adherence of LAB per 50 VEC),[1]; [20],21.4 ± 2.5
same,% VEC ADH,[1]; [21],38%
same,Range (adhered LAB per VEC),[1]; [21],0-11 LAB per VEC
same,X ± 1 STD (logarithmic mean adherence of LAB per 50 VEC),[1]; [21],1.9 ± 2.1
same,% VEC ADH,[1]; [22],200%
same,X ± 1 STD (logarithmic mean adherence of LAB per 50 VEC),[1]; [22],60.9 ± 2.1
same,Overall Averages # LAB/VEC,[1]; [23],43.7 LAB/VEC
same,Overall Averages % Adherence,[1]; [23],91.1%
same,% VEC ADH,[1]; [24],46%
same,X ± 1 STD (logarithmic mean adherence of LAB per 50 VEC),[1]; [24],6.4 ± 3.9
same,% VEC ADH,[1]; [25],38%
same,X ± 1 STD (logarithmic mean adherence of LAB per 50 VEC),[1]; [25],3.1 ± 3.2
same,% VEC ADH,[1]; [26],98%
same,X ± 1 STD (logarithmic mean adherence of LAB per 50 VEC),[1]; [26],10.9 ± 3.6
same,% VEC ADH,[1]; [27],72%
same,Range (adhered LAB per VEC),[1]; [27],0-178 LAB per VEC
same,X ± 1 STD (logarithmic mean adherence of LAB per 50 VEC),[1]; [27],7.1 ± 3.5
same,% VEC ADH,[1]; [28],99%
same,Range (adhered LAB per VEC),[1]; [28],0-56 LAB per VEC
same,X ± 1 STD (logarithmic mean adherence of LAB per 50 VEC),[1]; [28],6.5 ± 3.0
same,% VEC ADH,[1]; [29],60%
same,X ± 1 STD (logarithmic mean adherence of LAB per 50 VEC),[1]; [29],7.3 ± 4.7
same,% VEC ADH,[1]; [30],100%
same,Range (adhered LAB per VEC),[1]; [30],1-96 LAB per VEC
same,X ± 1 STD (logarithmic mean adherence of LAB per 50 VEC),[1]; [30],5.7 ± 2.8
same,% VEC ADH,[1]; [31],92%
same,Range (adhered LAB per VEC),[1]; [31],0-96 LAB per VEC
same,X ± 1 STD (logarithmic mean adherence of LAB per 50 VEC),[1]; [31],7.8 ± 3.1
same,% VEC ADH,[1]; [32],80%
same,X ± 1 STD (logarithmic mean adherence of LAB per 50 VEC),[1]; [32],6.9 ± 3.3
same,% VEC ADH,[1]; [33],100%
same,Range (adhered LAB per VEC),[1]; [33],1-66 LAB per VEC
same,X ± 1 STD (logarithmic mean adherence of LAB per 50 VEC),[1]; [33],15.9 ± 3.1
same,Overall Averages # LAB/VEC,[1]; [34],7.76 LAB/VEC
same,Overall Averages % Adherence,[1]; [34],78.4%
same,average adherence value,[1]; cells stored at refrigerated temperatures,24.3 cells/VEC
same,adherence of inactive (preserved state) cells compared with metabolically active cells,"[1]; frozen VECs, McIlvaines Buffer pH 4.5",equally well or better
same,average adherence value,[1]; room temperature stored cells,21.9 cells/VEC
same,"percent VEC cohesion value, average",[1]; stored at refrigerated temperature,97.75%
same,"percent VEC cohesion value, average",[1]; stored at room temperature,97%
same,H2O2 production during storage,[2],remained stable
same,women successfully colonized by the suppository strain,"[3]; suppositories twice daily for seven days, follow-up",7 of the 10
same,women cured of bacterial vaginosis,"[3]; suppositories twice daily for seven days, one week follow-up visit",1 of 10
same,side-effects,[3]; twice daily for seven days,None of the women experienced any side-effects
same,visual or microscopic evidence of inflammation,[3]; twice daily for seven days,none had either visual or microscopic evidence of inflammation
same,women with normal vaginal flora remaining colonized,"[4]; after one month, gelatin capsule inserted into the vagina",greater than 80%
same,side effects associated with use,[4]; over fifty women in clinical trials,None of the women who received the suppository had any side effects
